The text below walks through data of patent US8859543B2, “Imidazo[1,2-a]pyrazine derivatives and their use for the prevention or treatment of neurological, psychiatric and metabolic disorders and diseases” (Janssen Pharmaceutica NV, priority 2010, dated 2014).

In experiment [1] the target is T1, Rat recombinant PDE10A (rPDE10A2) (Rattus norvegicus, UniProt Q9QYJ6).
T1 construct: made in house; host or cells: Sf9 insect cells, baculovirus
T1 sequence (Q9QYJ6 1-794): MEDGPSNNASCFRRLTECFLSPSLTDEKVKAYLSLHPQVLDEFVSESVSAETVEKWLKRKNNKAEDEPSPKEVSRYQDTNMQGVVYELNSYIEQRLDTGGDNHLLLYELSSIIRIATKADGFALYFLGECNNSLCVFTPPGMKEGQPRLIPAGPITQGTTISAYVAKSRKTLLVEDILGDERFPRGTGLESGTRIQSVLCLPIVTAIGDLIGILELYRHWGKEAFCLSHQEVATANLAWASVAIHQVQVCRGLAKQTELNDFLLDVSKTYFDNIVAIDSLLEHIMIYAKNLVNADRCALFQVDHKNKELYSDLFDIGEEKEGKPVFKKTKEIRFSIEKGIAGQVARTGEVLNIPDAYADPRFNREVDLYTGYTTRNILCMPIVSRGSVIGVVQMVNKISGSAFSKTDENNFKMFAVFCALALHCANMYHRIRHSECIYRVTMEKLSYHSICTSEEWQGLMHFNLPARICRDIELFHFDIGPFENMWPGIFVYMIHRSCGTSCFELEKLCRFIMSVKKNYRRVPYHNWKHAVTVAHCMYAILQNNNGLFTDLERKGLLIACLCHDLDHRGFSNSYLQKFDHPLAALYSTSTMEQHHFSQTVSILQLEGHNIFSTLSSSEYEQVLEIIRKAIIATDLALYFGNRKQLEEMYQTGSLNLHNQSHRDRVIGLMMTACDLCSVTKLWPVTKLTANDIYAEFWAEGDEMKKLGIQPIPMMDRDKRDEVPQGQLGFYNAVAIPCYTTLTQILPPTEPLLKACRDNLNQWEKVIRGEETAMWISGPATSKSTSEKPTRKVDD
The experiment can be described thus: In vitro assay PDE10A (SPA, 3H-cAMP). The note with it: pIC50 corresponds to the -log IC50 expressed in mol/L; for IC50: read-out: PDE10A2 pIC50 (converted). It counts as biochemical. In a few lines:
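Purified Sf9-expressed rat PDE10A2 incubated 60 min at RT with 60 nM cAMP plus 0.008 μCi 3H-cAMP in 50 mM Tris pH 7.8, 8.3 mM MgCl2, 1.7 mM EGTA, 1% DMSO final. Product quantified by scintillation proximity counting against no-enzyme blanks and DMSO controls.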

The next experiment addresses T2, PDE10 (Rattus norvegicus, UniProt Q9QYJ6).
T2 construct: from tissue; host or cells: rat brain sections, striatum (ex vivo autoradiography after in vivo dosing)
T2 sequence (Q9QYJ6 1-794): T1 sequence (Q9QYJ6 1-794)
Kind of experiment: PDE10 occupancy ([3H]-MP-10, striatum). Format: in vivo. The following applies: for ED50: rat, sc, occupancy, read-out: Occ. ED50. Here is the method:
Dose-response or single dose experiments were performed to measure PDE10 occupancy 1 hour after subcutaneous (s.c.) or oral (p.o.) administration. Male Wistar rats (200 g) were treated by s.c. or p.o. administration of various PDE10 inhibitors. The PDE10 radioligand [^3H]-MP-10 (10 μCi/animal) was injected intravenously (i.v.) 30 minutes before sacrifice. Brains were immediately removed from the skull and rapidly frozen. Twenty μm-thick brain sections were cut using a cryostat-microtome, thaw-mounted on microscope slides and loaded in a β-imager to quantify PDE10 occupancy in the striatum.

For experiment [2], the system named is apomorphine-induced stereotypy. The experiment can be described thus: Apomorphine-induced stereotypy in rats (APO). Format: in vivo. The following applies: Rattus norvegicus. Here is the method:
Apomorphine-Induced Stereotypy in Rats (APO)
Apomorphine (1.0 mg/kg, i.v.)-induced stereotypy (compulsive sniffing, licking, chewing) was scored every 5 min. over the first hour after injection of apomorphine, following a 1 hour interval pre-treatment with the test compound. The score system was: (3) pronounced, (2) moderate, (1) slight, and (O) absent.

In experiment [3] the test system is PCP-induced hyperlocomotion. Kind of experiment: PCP-induced hyperlocomotion in rats (PCP). It counts as in vivo. The following applies: Rattus norvegicus.
Experiment [4] relates to conditioned avoidance response. Kind of experiment: Conditioned avoidance response (CAR) test. Format: in vivo. The following applies: Rattus norvegicus. The text has this:
Conditioned Avoidance Response (CAR) Test
The apparatus consisted of an inner box surrounded by an outer box. The inner box was composed of four walls of transparent, synthetic material (length×width×height: 30×30×30 cm), an open top, and a grid floor made of 15 pairs of iron bars (2 mm diameter; 6 mm inter-bar distance). Odd and even bars were connected with a source of alternative current (1.0 mA; Coulbourn Instruments Solid State Shocker/Distributor), which could be interrupted by a switch. The outer box was composed of the same material (length×width×height: 40×40×36 cm), also with an open top, with a distance of 5 cm between the inner and outer box on all sides. To decrease the amount of environmental stimuli, three walls of the outer box were made non-transparent. The front wall was left transparent to allow the necessary inspection of the animal during the test. The upper edge of the outer and inner box served as a target for the rats on which to jump with fore- and hind-paws, respectively.
From their arrival in the laboratory on the experimental day, male Wiga Wistar rats (230±30 g) were housed in individual cages provided with bedding material.
The rats were tested 3 times, i.e. at 60, 90 and 120 min after the injection of test compound or solvent. Latency to avoidance was recorded. The median avoidance response obtained over the three experimental sessions for each rat were used for further calculations.

The next experiment addresses PDE2A (Homo sapiens, UniProt O00408). The experiment can be described thus: In vitro PDE selectivity assay, PDE2A. Format: biochemical. The following applies: in vitro selectivity towards PDE10A versus PDE2A. Here is the method:
(§1) Rat recombinant PDE10A (rPDE10A2) was expressed in Sf9 cells using a recombinant rPDE10A baculovirus construct. Cells were harvested after 48 h of infection and the rPDE10A protein was purified by metal chelate chromatography on Ni-sepharose 6FF. […] The reaction was incubated for 60 min. at RT. […] After sedimentation of the beads during 30 min. the radioactivity was measured in a Perkin Elmer Topcount scintillation counter and results were expressed as cpm. For blank values the enzyme was omitted from the reaction and replaced by incubation buffer. […] The same assay principle is applied for the measurement of the affinity of the compound for other members of the PDE family with appropriate modifications in incubation buffer, substrate concentration, incubation time and stop solution.

The next experiment concerns the target PDE9A (Homo sapiens, UniProt O76083). Kind of experiment: In vitro PDE selectivity assay, PDE9A. Format: biochemical. The note with it: in vitro selectivity towards PDE10A versus PDE9. Here is the method: as §1
[5] abbreviates: not active at 2.5 or at 10 mg/kg, not further tested, read-out: APO ED50 (not active at threshold dose).
The mark [6] stands for this setting: po, * compound was not soluble and was tested orally as a suspension, read-out: APO ED50.

Where two headings read alike, the source gives them in different places. A value given as a limit tells only on which side of the number the result lay.

Chain of PDE9A (O76083 whole entry): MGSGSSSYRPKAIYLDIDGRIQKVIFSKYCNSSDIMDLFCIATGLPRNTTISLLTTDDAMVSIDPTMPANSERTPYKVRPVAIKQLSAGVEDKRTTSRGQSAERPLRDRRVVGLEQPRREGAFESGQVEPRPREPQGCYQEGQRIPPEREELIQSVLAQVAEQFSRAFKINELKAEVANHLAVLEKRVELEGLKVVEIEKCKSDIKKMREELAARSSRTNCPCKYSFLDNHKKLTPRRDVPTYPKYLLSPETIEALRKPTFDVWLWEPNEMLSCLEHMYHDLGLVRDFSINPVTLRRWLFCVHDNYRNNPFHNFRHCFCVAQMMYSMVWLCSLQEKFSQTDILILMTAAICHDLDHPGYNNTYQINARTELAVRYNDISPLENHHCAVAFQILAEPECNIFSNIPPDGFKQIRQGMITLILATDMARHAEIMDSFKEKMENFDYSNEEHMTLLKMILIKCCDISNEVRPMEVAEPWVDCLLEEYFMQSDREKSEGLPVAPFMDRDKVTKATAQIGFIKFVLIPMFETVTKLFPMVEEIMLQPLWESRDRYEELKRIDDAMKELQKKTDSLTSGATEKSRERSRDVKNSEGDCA
Chain of PDE2A (O00408 whole entry, species assumed): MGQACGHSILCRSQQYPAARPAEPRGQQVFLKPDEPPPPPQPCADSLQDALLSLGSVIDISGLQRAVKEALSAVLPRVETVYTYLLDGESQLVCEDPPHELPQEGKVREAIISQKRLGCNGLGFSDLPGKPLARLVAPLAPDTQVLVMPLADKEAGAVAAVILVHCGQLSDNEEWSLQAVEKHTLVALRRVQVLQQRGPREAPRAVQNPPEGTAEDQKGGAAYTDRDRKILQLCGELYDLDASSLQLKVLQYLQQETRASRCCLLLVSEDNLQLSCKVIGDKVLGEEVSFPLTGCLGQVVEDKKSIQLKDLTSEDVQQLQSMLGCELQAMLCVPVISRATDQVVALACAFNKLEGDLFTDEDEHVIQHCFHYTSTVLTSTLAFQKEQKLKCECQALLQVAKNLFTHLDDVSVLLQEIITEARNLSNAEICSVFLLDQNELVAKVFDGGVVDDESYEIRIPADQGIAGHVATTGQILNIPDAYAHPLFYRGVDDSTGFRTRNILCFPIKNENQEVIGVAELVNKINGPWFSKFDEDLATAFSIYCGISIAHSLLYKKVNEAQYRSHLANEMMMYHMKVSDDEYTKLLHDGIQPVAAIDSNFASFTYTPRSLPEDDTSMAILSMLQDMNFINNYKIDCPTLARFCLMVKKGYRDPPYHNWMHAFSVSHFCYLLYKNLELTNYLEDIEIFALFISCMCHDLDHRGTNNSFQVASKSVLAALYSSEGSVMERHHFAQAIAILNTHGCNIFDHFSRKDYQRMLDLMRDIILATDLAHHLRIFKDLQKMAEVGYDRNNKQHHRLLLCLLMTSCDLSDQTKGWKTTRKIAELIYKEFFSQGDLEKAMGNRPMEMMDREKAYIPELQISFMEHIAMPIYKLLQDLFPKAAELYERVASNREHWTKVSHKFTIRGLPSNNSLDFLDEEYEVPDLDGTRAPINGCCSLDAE

Take `Cc1nc2c(-c3ccncc3)nccn2c1-c1cnn(CC(C)C)c1` [compound 69]: in experiment [1], the IC50 was 89.1 nM. Moreover, the “% Occ. at 10 mg/kg” value on PDE10 (administered s.c.) came out at 67%. In addition, the median effective dose (ED50) in experiment [2] (read-out: APO ED50) worked out at 5 mg/kg; in experiment [3], 2 mg/kg.

As for `COC(C)(C)Cn1cc(-c2c(C)nc3c(N4CCOCC4)nccn23)cn1` [compound 72], in experiment [1], the IC50 was 95.5 nM. The median effective dose (ED50) at PDE10 (administered s.c.) worked out at 6.4 mg/kg; in experiment [2] (read-out: APO ED50), 1.2 mg/kg; in experiment [3], 2 mg/kg.

Consider `CO[C@@H](C)Cn1cc(-c2c(C)nc3c(N4CCOCC4)nccn23)cn1` [compound 57], for which the “PDE10A2 pIC50” value in experiment [1] was found to be 7.22. Further, the 50% effective dose (ED50) at PDE10 (administered s.c.) was found to be 8 mg/kg; in experiment [2] (read-out: APO ED50), 1.2 mg/kg; in experiment [4], 5 mg/kg.

On to `COCCn1cc(-c2c(C3CC3)nc3c(-c4ccncc4)nccn23)cn1` [compound 51], for which the IC50 in experiment [1] was 50.1 nM. Besides, the “% Occ. at 10 mg/kg” value at PDE10 (administered s.c.) is recorded as 61%. The ED50 in experiment [2] (read-out: APO ED50) amounted to 1.2 mg/kg.

Consider `COC(C)(C)c1ccc(-c2c(C)nc3c(N4CCOCC4)nccn23)cn1` [compound 30, 3-[6-(1-Methoxy-1-methyl-ethyl)-pyridin-3-yl]-2-methyl-8-morpholin-4-yl-imidazo[1,2-a]pyrazine], for which the IC50 in experiment [1] was 107 nM. Besides, the values for the ED50 (on PDE10 (administered s.c.); in experiment [2] (read-out: APO ED50)) were 3.4 mg/kg and 1.2 mg/kg, respectively.

As to `COCCn1cc(-c2c(C)nc3c(N4CCCC4)nccn23)cn1` [compound 130], the “PDE10A2 pIC50” value in experiment [1] came to 6.3. For the same compound, the “% Occ. at 10 mg/kg” value at PDE10 (administered s.c.) is on record as 10%. Also, the ED50 in experiment [2] (setting [5]) was > 2.5 mg/kg.

With `Cc1nc2c(N3CCOCC3)nccn2c1-c1cnn(CC(C)C)c1` [compound 97], the values for the 50% effective dose (ED50) in experiment [2] (read-out: APO ED50), in experiment [3] and in experiment [4] were 2 mg/kg, 5.4 mg/kg and 12.3 mg/kg, respectively.

As to `Cc1nc2c(N3CCOCC3)nccn2c1-c1cnn(CC2CCCCO2)c1` (single isomer, unassigned) [compound 70], the IC50 in experiment [1] is 91.2 nM. Moreover, the ED50 in experiment [2] (read-out: APO ED50) was found to be 5 mg/kg; in experiment [3] it was 3.2 mg/kg.

For `COC(C)(C)Cn1cc(-c2c(C3CC3)nc3c(N4CCOCC4)nccn23)cn1` [compound 48], the IC50 in experiment [1] was 33.1 nM. In addition, the “% Occ. at 10 mg/kg” value at PDE10 (administered s.c.) stood at 53%. Moreover, the ED50 in experiment [2] (read-out: APO ED50) amounted to 3.1 mg/kg.

`COCCc1ccc(-c2c(C)nc3c(N4CCOCC4)nccn23)cn1` [compound 16, 3-[6-(2-Methoxy-ethyl)-pyridin-3-yl]-2-methyl-8-morpholin-4-yl-imidazo[1,2-a]pyrazine]: the 50% effective dose (ED50) in experiment [2] (read-out: APO ED50) is 1 mg/kg; in experiment [3] it was 1.54 mg/kg; in experiment [4], 2 mg/kg.

As for `c1cn2c(-c3cnn(CC4CC4)c3)cnc2c(N2CCOCC2)n1` [compound 119], in experiment [1], the IC50 was 324 nM. Further, at PDE2A, the “Selectivity PDE2A” value is given as “≧10 fold, except compound 119 (>3.02 fold selectivity)”. Further, the 50% effective dose (ED50) in experiment [2] (setting [5]) is > 2.5 mg/kg.

Take `COCCn1cc(-c2c(C)nc3c(-c4ccncc4)nccn23)cn1` [compound 34, 3-[1-(2-Methoxy-ethyl)-1H-pyrazol-4-yl]-2-methyl-8-pyridin-4-yl-imidazo[1,2-a]pyrazine]: the IC50 in experiment [1] was 263 nM. The “% Occ. at 10 mg/kg” value at PDE10 (administered s.c.) amounted to 52%. Besides, the ED50 in experiment [2] (setting [6]) is 1.2 mg/kg.

With `Cc1nc2c(N3CCOCC3)nccn2c1-c1cnn(CC2CC2(F)F)c1` (centres unmarked) [compound 52], the IC50 in experiment [1] was 52.5 nM. Besides, the 50% effective dose (ED50) on PDE10 (administered s.c.) was 5.5 mg/kg; in experiment [2] (read-out: APO ED50), 3.1 mg/kg; in experiment [3] it was ≤ 10 mg/kg.

In the case of `FC(F)(F)Cn1cc(-c2c(C3CC3)nc3c(-c4ccncc4)nccn23)cn1` [compound 45], the IC50 in experiment [1] is 20 nM. The “% Occ. at 10 mg/kg” value on PDE10 (administered p.o. (a)) is recorded as 53^a %. In experiment [2] (setting [6]), the 50% effective dose (ED50) was 3.1 mg/kg.

For the compound `FC(F)(F)Cn1cc(-c2c(C3CC3)nc3c(N4CCOCC4)nccn23)cn1` [compound 46], in experiment [1], the IC50 is 25.1 nM. Moreover, the “% Occ. at 10 mg/kg” value on PDE10 (administered s.c.) was 41%. Moreover, the ED50 in experiment [2] (setting [6]) amounted to 5 mg/kg.

`COC(C)(C)Cn1cc(-c2c(C)nc3c(-c4ccncc4)nccn23)cn1` [compound 78]: in experiment [1], the IC50 is 105 nM. The “Selectivity PDE9” value at PDE9A is listed as >10-100 fold, except 78 (<10 fold selectivity). Also, on PDE10 (administered s.c.), the “% Occ. at 10 mg/kg” value was found to be 76%. In experiment [2] (read-out: APO ED50), the ED50 was found to be 1.2 mg/kg.

On to `COCCn1cc(-c2c(C3CC3)nc3c(N4CCOCC4)nccn23)cn1` [compound 53], for which the “PDE10A2 pIC50” value in experiment [1] came to 7.27. Moreover, the results for the ED50 in experiment [2] (read-out: APO ED50) and in experiment [3] were 5 mg/kg and ≤ 40 mg/kg, respectively.

As to `COCCn1cc(-c2c(C(F)(F)F)nc3c(N4CCOCC4)nccn23)cn1` [compound 118], the “PDE10A2 pIC50” value in experiment [1] was found to be 6.51. For the same compound, at PDE10 (administered s.c.), the “% Occ. at 10 mg/kg” value worked out at 0%. The median effective dose (ED50) in experiment [2] (setting [5]) was > 2.5 mg/kg.

For the compound `Cc1nc2c(N3CCOCC3)nccn2c1-c1ccc(N2CCOCC2)nc1` [compound 4, 2-Methyl-8-morpholin-4-yl-3-(6-morpholin-4-yl-pyridin-3-yl)-imidazo[1,2-a]pyrazine], the IC50 in experiment [1] is 141 nM. Moreover, at PDE10 (administered s.c.), the “% Occ. at 10 mg/kg” value is given as 28%. Moreover, in experiment [2] (read-out: APO ED50), the ED50 was determined as 3.1 mg/kg.
